The source of these data is patent US20260306500A1, “METHOD OF INHIBITING ADENOSINE TRIPHOSPHATE SECRETION, METHOD OF INHIBITING HEPATIC STELLATE CELL ACTIVATION, METHOD OF DEACTIVATING HEPATIC STELLATE CELL, METHOD OF TREATING HEPATIC FIBROSIS, METHOD OF TREATING NON-ALCOHOLIC STEATOHEPATITIS, AND METHOD OF TREATING PSORIASIS” (Kurume University, priority 2023, published 2026).

Test [1] relates to human epidermal keratinocytes. The test is described as follows: ATP secretion from human epidermal keratinocytes promoted by ionomycin. The format is cell-based. To be noted: for ATP secretion level relative to control solution (RLU ratio): 1 μM imeglimin, N=3 (FIG. 4). As for the experimental part: Human epidermal keratinocytes (Cryopreserved HEK, Lot 1758, Cell Applications Inc.) were cultured using an Epivita Keratinocyte Growth Medium Kit according to the manufacturer's instructions. The procedure was as follows. A supplement medium was added to a hydrocortisone-containing basal medium included in the medium preparation kit to prepare a complete medium. The medium in the dish was removed by aspiration. The cells were washed with 5 ml of BSS (Gbco), and then the BSS was removed by aspiration. After addition of 5 to 6 ml of trypsin/EDTA solution (Gbco), the dish was incubated at 37° C. for 2 minutes. After addition of 5 ml of trypsin neutralization solution, the resulting cell suspension was transferred into two 15-ml Falcon tubes, and centrifuged at 200×g for 5 minutes. The supernatant was removed by aspiration, and the pelleted cell cluster was suspended in 2 ml of the medium at 4.5×10^5 cells/ml. An aliquot of the resulting cell suspension was cryopreserved, while another aliquot was cultured and subjected to measurement.
ATP secretion by human epidermal keratinocytes (hereinafter referred to as “keratinocytes”) was measured. Regarding control solutions, Krebs-Ringer HEPES supplemented with 0.2% BSA and 25 mM glucose (hereinafter also referred to as “Krebs/Iono(−)”) was used as a negative control, and a solution prepared by adding 5 μM ionomycin to this solution (hereinafter also referred to as “Krebs/Iono(+)”) was used as a positive control for ATP secretion. Ionomycin is a Ca^2+ ionophore. Addition of ionomycin to cells is known to promote influx of extracellular Ca^2+ into the cells to increase the intracellular Ca^2+ concentration, resulting in enhancement of ATP secretion. Test solutions were prepared by adding clodronate to Krebs/Iono(−) or Krebs/Iono(+) to a final concentration of 0.1 μM (hereinafter also referred to as “Clo/Iono(−)” or “Clo/Iono(+)”, respectively) (N=3).
Keratinocytes were cultured at 2.5×10^4 cells/well in a 24-well plate at 37° C. in 5% CO2 for 4 days. The medium was removed by aspiration, replaced with Krebs/Iono(−) or Clo/Iono(−), and incubated at 37° C. for 6 hours. These solutions were then removed by aspiration, and the content of each well incubated with Krebs/Iono(−) was replaced with 300 μl of a control solution (Krebs/Iono(−) or Krebs/Iono(+)), while the content of each well incubated with Clo/Iono(−) was replaced with 300 μl of a test solution (Clo/Iono(−) or Clo/Iono(+)). After further incubation at 37° C. for 20 minutes, 200 μl of the supernatant was collected. The collected supernatant was immediately treated on a heat block at 95° C. for 10 minutes, to inactivate ectonucleotidase. ATP in the supernatant was quantified using a Dojindo ATP assay kit−Luminescence (manufactured by Dojindo Laboratories).
Keratinocytes were cultured in the same manner as in Example 1, and ATP secretion from the keratinocytes was measured. Krebs/Iono(−), or a solution prepared by adding 10 μM imeglimin, 0.1 μM eicosapentaenoic acid (EPA), 1 μM EPA, or 10 μM clodronate to Krebs/Iono(−) was used (N=4).
After culturing keratinocytes, the medium was removed by aspiration, and replaced with Krebs/Iono(−), or Krebs/Iono(−) supplemented with 10 μM imeglimin, 0.1 μM EPA, 1 μM EPA, or 10 μM clodronate, followed by incubation for 6 hours. Subsequently, the solution was replaced with either a control solution (Krebs/Iono(−) or Krebs/Iono(+)) or a test solution (Krebs/Iono(+) supplemented with 10 μM imeglimin, 0.1 μM EPA, 1 μM EPA, or 10 μM clodronate), followed by incubation at 37° C. for 20 minutes and then collection of 200 μl of the supernatant. The collected supernatant was immediately treated on a heat block at 95° C. for 10 minutes to inactivate ectonucleotidase. ATP in the supernatant was quantified using a Dojindo ATP assay kit—Luminescence (manufactured by Dojindo Laboratories). […]

For test [2], the system named is human epidermal keratinocytes. The test is described as follows: ATP secretion from keratinocytes upon LPS stimulation. To be noted: 18 hours, 10 μg/ml LPS, N=8 (FIG. 8). The format is cell-based. As to the method:
Keratinocytes were cultured in the same manner as in Example 1. Keratinocytes were cultured at 2.5×10^4 cells/well in a 24-well plate at 37° C. in 5% CO2 for 4 days. The medium was replaced with a test solution (Hanks' balanced salt solution (HBSS) (manufactured by Gibco) supplemented with imeglimin, metformin, or clodronate), and then incubation was performed at 37° C. in 5% CO2 for 18 hours. Thereafter, LPS (10 μg/ml) was added thereto, and incubation was further carried out for 10 minutes, followed by collection of 200 μl of the supernatant. The supernatant was immediately treated on a heat block at 95° C. for 10 minutes, and ATP in the supernatant was quantified using an ATP Assay Kit−Luminescence (manufactured by Dojindo) (N=8).

Test [3] deals with macrophages (THP-1 cells). The test is described as follows: ATP secretion from macrophages differentiated from THP-1 cells upon LPS stimulation. To be noted: 10 μM, 10 μg/ml LPS, N=10 (FIG. 9). The format is cell-based, human. As to the method:
Human acute monocytic leukemia cells (THP-1 cells (ACTT)) were cultured in accordance with Reference D. THP-1 cells were cultured in RPMI1640 medium supplemented with 10% fetal bovine serum (FBS), 100 units/ml penicillin, and 100 μg/ml streptomycin at 37° C. in 5% CO2 for 1 day. Further, THP-1 cells were cultured in RPMI1640 medium supplemented with 1 μg/ml Escherichia coli serotype 055:B5 (manufactured by Sigma-Aldrich) and 1000 units/ml mouse IFN-γ (manufactured by R&D Systems) at 37° C. in 5% CO2 for 1 day, to allow differentiation into macrophages.
The differentiated macrophages were cultured in RPMI1640 medium supplemented with 1 mg/ml Escherichia coli serotype 055:B5 (manufactured by Sigma-Aldrich) and 1000 units/ml mouse IFN-γ (manufactured by R&D Systems) at 2.5×10^4 cells/well in a 24-well plate at 37° C. in 5% CO2 for 4 days. The medium was replaced with HBSS (manufactured by Gibco) supplemented with imeglimin or clodronate), and then LPS (10 μg/ml) was added thereto, followed by further performing incubation for 10 minutes and then collection of 200 μl of the supernatant. The supernatant was immediately treated on a heat block at 95° C. for 10 minutes, and ATP in the supernatant was quantified using an ATP assay kit−Luminescence (manufactured by Dojindo) (N=10).

With `O=P(O)(O)C(Cl)(Cl)P(=O)(O)O` [clodronate], the “ATP secretion level promoted by ionomycin” value in test [1] (0.1 μM clodronate, 6 h preincubation, 5 μM ionomycin, N=3 (FIG. 1)) is “almost the same as those in Krebs/Iono(−) and Clo/Iono(−)”. Further, the “LPS-stimulated ATP secretion” value in test [2] (10 μM) was “almost completely inhibited”. In addition, the “LPS-induced ATP secretion from macrophages” value in test [3] is “strongly inhibited”.

Take `C[C@@H]1N=C(N)NC(N(C)C)=N1` [imeglimin]: the “ATP secretion inhibitory effect at low concentration” value in test [1] (0.1 μM, 6 h preincubation, ionomycin) is given as “exhibit an ATP secretion inhibitory effect”. Further, the “ATP secretion level relative to control solution (RLU ratio)” value in test [1] (incubation time 2 hours, ionomycin) was “about 85%”; in test [1] (incubation time 6 hours, ionomycin), “about 40%”. For the same compound, the “ATP secretion inhibitory effect, comparison” value in test [1] (10 μM imeglimin vs 1 μM EPA and 10 μM clodronate) is “comparable to those of 1 μM EPA and 10 μM clodronate”. Besides, the “ATP secretion inhibitory effect relative to metformin” value in test [1] (0.1, 1, 10 μM, 6 h preincubation, N=3 (FIG. 3)) was “slightly higher ATP secretion inhibitory effect than metformin”. For the same compound, the “LPS-stimulated ATP secretion” value in test [2] (1 μM) and in test [2] (10 μM) was “almost completely inhibited” in each case. In test [3], the “LPS-induced ATP secretion from macrophages” value is “strongly inhibited”.

With `C=C(OP(=O)(O)O)C(=O)O` [PEP, phosphoenolpyruvic acid], the “ATP secretion inhibitory effect” value in test [1] (PEP at not less than 3 mM (data not shown)) was “relatively strong ATP secretion inhibitory effect”.
